From paper PMC6608569 (Bioorganic & medicinal chemistry letters, 2019)

Key:
GRP78 = GRP78 (Homo sapiens, UniProt P11021); assay: Fluorescence polarization FITC-NRLLLTG peptide; conditions: peptide binding assay, 8-point dose responses
HCT116 cells [1] = assay: Unfolded protein response markers by immunoblot; assay type: cell-based; conditions: 16 hours, three concentrations
HCT116 cells [2] = assay: Annexin V / propidium iodide flow cytometry; assay type: cell-based

GRP78, sequence (P11021 26-636): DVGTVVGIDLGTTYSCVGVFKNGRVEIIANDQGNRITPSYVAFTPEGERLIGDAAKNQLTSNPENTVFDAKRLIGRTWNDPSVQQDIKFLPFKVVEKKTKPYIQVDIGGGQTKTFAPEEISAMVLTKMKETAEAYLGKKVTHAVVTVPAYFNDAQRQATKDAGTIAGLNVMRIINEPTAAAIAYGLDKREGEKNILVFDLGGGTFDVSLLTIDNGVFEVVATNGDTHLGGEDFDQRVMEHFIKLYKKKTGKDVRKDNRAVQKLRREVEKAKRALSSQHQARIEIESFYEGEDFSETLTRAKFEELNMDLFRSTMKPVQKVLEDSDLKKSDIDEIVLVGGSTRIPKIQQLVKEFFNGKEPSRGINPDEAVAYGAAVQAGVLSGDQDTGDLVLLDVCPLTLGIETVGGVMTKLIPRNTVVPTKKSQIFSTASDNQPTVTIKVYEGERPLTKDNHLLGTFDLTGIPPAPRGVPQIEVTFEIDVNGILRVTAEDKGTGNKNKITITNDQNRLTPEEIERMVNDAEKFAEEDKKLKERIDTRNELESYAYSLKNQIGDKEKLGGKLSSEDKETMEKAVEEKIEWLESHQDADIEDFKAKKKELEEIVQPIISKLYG

| SMILES | GRP78 inhibition, SAR result in words (GRP78) | further results |
| --- | --- | --- |
| Oc1c(Cl)cc(Cl)c(Cl)c1Sc1c(O)c(Cl)cc(Cl)c1Cl [compound 2] | tolerated | – |
| Oc1ccc(Cl)cc1Cc1cc(Cl)ccc1O [compound 5] | inactive | – |
| Oc1cc(Cl)ccc1Oc1ccc(Cl)cc1Cl [compound 6] | not tolerated | – |
| Oc1ccccc1Cc1ccccc1O [compound 7] | inactive | – |
| CCc1cc(Cc2cc(CC)cc(C(C)(C)C)c2O)c(O)c(C(C)(C)C)c1 [compound 8] | not tolerated | – |
| O=C(Nc1cc(Cl)cc(Cl)c1O)c1c(O)c(Cl)cc(Cl)c1Cl [compound 9] | not tolerated | – |
| Cc1cc(Cc2cc(C)cc(C(C)(C)C)c2O)c(O)c(C(C)(C)C)c1 [compound 10] | not tolerated | – |
| Oc1c(Cl)cc(Cl)c(Cl)c1Cc1c(O)c(Cl)cc(Cl)c1Cl [hexachlorophene] | – | induction of UPR markers (XBP1s, ATF4, CHOP) (HCT116 cells [1]): dose dependent induction; percentage of apoptotic cells (annexin V staining only) versus Taxol control (HCT116 cells [2]; 10 μM, 24 hours): same percentage of apoptotic cells; percentage of apoptotic cells versus Taxol control (HCT116 cells [2]; 25 μM, 24 hours): larger percentage of apoptotic cells than the Taxol control; mechanism of cell death (HCT116 cells [2]; 5, 10, or 25 μM, dose and time course): apoptotic cell death in a dose (Figure 6A) and time (Figure 6B) dependent manner; time of peak early apoptosis (annexin V positive and PI negative) (HCT116 cells [2]; time course): about 24 hours; time of peak late stage apoptosis (Annexin V and PI positive) (HCT116 cells [2]; time course): 36 h |
